The values that follow come from US20240217947A1, “Morpholinylquinazoline Compound, Pharmaceutical compositions thereof and Use Thereof” (SHANGHAI YINGLI PHARMACEUTICAL CO., LTD, priority 2022, published 2024).

Some results are limits rather than exact numbers.

Holding throughout (format): biochemical
For one experiment, the target named is T1, HDAC6 (Homo sapiens, UniProt Q9UBN7).
T1 sequence (Q9UBN7 1-1215): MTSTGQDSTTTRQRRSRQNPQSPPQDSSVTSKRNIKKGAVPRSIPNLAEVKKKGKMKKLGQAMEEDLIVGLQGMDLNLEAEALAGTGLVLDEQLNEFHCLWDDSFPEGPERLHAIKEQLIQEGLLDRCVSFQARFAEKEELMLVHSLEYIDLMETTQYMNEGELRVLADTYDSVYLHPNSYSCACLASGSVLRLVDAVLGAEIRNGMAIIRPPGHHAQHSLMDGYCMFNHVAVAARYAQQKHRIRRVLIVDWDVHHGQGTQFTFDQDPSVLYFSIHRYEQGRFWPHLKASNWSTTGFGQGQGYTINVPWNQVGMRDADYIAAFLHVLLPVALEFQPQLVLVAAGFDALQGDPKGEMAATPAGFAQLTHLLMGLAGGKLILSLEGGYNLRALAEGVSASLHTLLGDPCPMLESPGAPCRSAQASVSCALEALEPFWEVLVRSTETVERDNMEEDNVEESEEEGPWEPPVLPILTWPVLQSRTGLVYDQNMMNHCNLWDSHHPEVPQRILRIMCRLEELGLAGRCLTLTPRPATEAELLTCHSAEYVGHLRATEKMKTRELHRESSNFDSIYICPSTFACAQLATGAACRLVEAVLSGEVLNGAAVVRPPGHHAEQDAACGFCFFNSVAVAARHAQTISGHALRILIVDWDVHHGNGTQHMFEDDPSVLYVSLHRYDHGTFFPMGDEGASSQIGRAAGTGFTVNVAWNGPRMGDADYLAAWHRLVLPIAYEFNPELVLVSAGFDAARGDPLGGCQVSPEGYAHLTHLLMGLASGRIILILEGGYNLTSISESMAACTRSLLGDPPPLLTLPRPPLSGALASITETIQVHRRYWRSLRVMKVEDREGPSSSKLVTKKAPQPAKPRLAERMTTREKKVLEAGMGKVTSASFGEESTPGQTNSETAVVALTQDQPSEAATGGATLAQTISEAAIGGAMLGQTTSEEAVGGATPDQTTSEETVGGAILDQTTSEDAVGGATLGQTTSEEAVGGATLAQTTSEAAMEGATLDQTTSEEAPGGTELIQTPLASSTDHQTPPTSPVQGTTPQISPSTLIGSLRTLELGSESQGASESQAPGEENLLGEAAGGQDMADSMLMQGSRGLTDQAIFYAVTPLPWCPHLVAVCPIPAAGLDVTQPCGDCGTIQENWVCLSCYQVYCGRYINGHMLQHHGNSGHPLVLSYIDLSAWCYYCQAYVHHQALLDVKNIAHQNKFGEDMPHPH
In words: HDAC6 enzyme activity inhibition IC50 evaluation experiment. The note with it: HDAC6 5 nM, acetylated peptide 11 μM, trypsin, fluorescence. As for the experimental part: (§1) Effect Example 2 HDAC1, HDAC2, HDAC3, HDAC6 enzyme activity inhibition IC50 evaluation experiment
(§2) Buffer solution (50 mM Tris 7.5, 0.01% Tween-20, 50 mM NaCl) was prepared according to the kit instructions, and the enzyme solution and substrate solution (acetylated peptide with the addition of trypsin) were prepared using the buffer solution. The test compound samples were dissolved with DMSO and added to the screening system at a certain starting concentration such as 10 μM, 3-fold dilution, while setting up a DMSO control and no-enzyme control. The enzyme reaction system includes: buffer, enzyme [final concentration: HDAC1=10 nM, HDAC2=4 nM, HDAC3=7 nM, HDAC6=5 nM], substrate (acetylated peptide) [final concentration: Peptide(HDAC1)=8 μM, Peptide(HDAC2)=10 μM, Peptide(HDAC3)=5 μM, Peptide(HDAC6)=11 μM], trypsin [final concentration: Trypsin(HDAC1,2,3)=0.05 μM, Trypsin(HDAC6)=0.1 μM], etc. The enzymes and compounds were reacted at room temperature for 15 min. After adding the substrate and Trypsin, centrifugation was performed for 1 min, and the fluorescence signal data (excitation wavelength 355 nM/emission wavelength 460 nm) was read continuously for 60 min using Envision, and the linear reaction segment was selected to obtain the slope and thus calculate the inhibition rate at that concentration. The IC50 value was obtained by fitting the curve using the formula Y=Bottom+(Top-Bottom)/(1+(IC50/X)^HillSlope).

The target in the next experiment is HDAC2 (Homo sapiens, UniProt Q92769). In words: HDAC2 enzyme activity inhibition IC50 evaluation experiment. The note with it: HDAC2 4 nM, acetylated peptide 10 μM, trypsin, fluorescence. Here is the method:
as §1, §2

For a further experiment, the target named is PI3Kδ (Homo sapiens, UniProt O00329). In words: PI3Kδ enzyme activity inhibition IC50 evaluation assay (ADP-Glo Kinase Assay). Particulars: ATP 25 μM, PIP2 50 μg/mL, 1 hour room temperature, read-out: PI3K-δ IC50. Here is the method: Effec Example 1 IC50 evaluation assay for PI3Kα, PI3Kδ, PI3Kβ and PI3Kγ enzyme activity inhibition
The experiment was performed using the ADP-Glo Kinase Assay kit, following the instructions. The following buffer solutions were prepared: 50 mM HEPES, pH 7.5, 3 mM MgCl2, 1 mM EGTA, 100 mM NaCl, 0.03% CHAPS, 2 mM DTT. The test compound samples were dissolved in DMSO and added to the screening system at a certain starting concentration such as 10 μM, 3-fold dilution, while setting up both DMSO control and no kinase control. The optimal concentrations of PI3Kα, PI3Kδ, PI3Kβ and PI3Kγ enzymes, substrate (PIP2) and ATP were prepared in buffer. The enzyme reaction system included: buffer, ATP 25 μM, kinase substrate (PIP2, 50 μg/mL), kinases [PI3Kα (0.15 μg/mL), PI3Kδ (1.2 μg/mL), PI3Kβ (0.3 μg/mL) and PI3Kγ (2.5 μg/mL)], etc. The reaction system was reacted at room temperature for 1 hour. The reaction was terminated by adding a termination reagent (ADP-Glo reagent, 5 μL), and the ADP content in the system was detected using a detection reagent (Kinase Detection Reagent, 10 μL). Signal data were collected using the Envision instrument. Calculate the percentage of (%) inhibition according to the following formula: % inhibition=(DMSO control signal value−sample signal value)/(DMSO control signal value−no-kinase control signal value). The IC50 value was obtained by fitting the curve using the formula Y=Bottom+(Top-Bottom)/(1+(IC50/X)^HillSlope).

Chain of PI3Kδ (O00329 whole entry, species assumed): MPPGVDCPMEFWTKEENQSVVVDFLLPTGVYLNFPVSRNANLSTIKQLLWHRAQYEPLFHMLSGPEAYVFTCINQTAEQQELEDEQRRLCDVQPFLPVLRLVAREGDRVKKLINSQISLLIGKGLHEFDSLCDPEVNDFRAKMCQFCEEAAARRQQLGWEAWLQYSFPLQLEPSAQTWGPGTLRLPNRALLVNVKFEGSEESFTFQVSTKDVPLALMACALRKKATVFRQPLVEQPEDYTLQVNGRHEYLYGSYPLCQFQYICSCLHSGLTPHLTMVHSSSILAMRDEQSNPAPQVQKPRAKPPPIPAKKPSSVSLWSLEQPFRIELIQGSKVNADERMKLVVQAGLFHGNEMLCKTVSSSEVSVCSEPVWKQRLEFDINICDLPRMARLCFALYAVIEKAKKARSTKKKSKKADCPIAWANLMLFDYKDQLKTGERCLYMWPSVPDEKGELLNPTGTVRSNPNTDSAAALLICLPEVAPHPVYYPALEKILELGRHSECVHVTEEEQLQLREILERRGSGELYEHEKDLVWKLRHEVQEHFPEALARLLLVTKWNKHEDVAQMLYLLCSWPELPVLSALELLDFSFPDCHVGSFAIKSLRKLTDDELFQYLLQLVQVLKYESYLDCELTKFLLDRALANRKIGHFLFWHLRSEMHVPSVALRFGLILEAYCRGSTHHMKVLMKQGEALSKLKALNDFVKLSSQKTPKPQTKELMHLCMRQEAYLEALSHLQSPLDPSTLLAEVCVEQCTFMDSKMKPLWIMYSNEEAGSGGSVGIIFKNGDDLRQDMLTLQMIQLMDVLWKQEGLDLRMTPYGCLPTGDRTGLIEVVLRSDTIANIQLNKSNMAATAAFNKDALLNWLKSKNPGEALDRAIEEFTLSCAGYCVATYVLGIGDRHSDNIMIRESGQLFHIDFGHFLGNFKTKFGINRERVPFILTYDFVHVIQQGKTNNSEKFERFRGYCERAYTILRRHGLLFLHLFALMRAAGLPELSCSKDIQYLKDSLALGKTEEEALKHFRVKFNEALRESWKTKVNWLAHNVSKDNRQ
Chain of PI3Kδ (P27986 whole entry partner, species assumed): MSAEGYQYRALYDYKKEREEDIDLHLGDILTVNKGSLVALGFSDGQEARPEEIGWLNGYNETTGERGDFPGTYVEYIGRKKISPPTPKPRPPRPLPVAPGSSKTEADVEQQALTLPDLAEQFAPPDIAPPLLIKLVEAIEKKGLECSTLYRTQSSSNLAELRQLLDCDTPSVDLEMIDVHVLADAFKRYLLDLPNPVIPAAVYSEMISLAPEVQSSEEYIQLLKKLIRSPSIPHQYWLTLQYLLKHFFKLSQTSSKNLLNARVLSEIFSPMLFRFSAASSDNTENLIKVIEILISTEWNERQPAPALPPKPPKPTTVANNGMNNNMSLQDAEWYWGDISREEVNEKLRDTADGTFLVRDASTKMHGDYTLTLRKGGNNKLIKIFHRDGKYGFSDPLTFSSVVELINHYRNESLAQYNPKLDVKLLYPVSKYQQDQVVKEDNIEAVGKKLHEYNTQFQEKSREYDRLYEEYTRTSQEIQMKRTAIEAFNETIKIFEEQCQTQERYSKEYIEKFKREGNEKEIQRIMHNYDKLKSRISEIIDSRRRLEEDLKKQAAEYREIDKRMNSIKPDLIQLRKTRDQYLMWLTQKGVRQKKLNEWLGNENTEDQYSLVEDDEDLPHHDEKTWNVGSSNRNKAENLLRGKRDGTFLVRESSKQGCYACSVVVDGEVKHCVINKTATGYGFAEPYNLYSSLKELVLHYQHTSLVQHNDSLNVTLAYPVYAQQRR
Chain of HDAC2 (Q92769 whole entry, species assumed): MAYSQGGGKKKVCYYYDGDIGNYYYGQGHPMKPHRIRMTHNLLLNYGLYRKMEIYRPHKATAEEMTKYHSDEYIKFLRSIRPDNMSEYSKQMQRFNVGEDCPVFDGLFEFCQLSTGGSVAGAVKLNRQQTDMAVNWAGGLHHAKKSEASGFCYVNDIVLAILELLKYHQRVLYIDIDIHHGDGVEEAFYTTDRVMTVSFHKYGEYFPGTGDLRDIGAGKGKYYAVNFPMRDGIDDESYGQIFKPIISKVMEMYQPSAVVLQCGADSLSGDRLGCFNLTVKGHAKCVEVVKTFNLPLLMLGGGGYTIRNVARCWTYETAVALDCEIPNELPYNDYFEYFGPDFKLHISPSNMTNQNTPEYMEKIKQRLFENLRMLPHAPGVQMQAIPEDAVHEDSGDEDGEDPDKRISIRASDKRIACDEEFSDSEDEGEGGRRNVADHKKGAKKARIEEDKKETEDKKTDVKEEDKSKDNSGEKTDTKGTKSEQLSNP

In general, IC50 refers to the point on the concentration scale where inhibition reaches its midpoint. Consider `COc1ncc(-c2nc(N3CCOCC3)nc3c(CN4CCN(c5ncc(C(=O)NO)cn5)CC4)cc(F)cc23)cc1NS(C)(=O)=O` [Compound 7], for which the concentration for half-maximal inhibition (IC50) at HDAC6 is 0.01 to 0.1 µM; against HDAC2 it was 0.01 to 0.1 µM; at PI3Kδ, ≤ 0.01 µM.
`COc1ncc(-c2nc(N3CCOCC3)nc3c(OCCCCCCC(=O)NO)cc(F)cc23)cc1NS(C)(=O)=O` [Compound 9]: the IC50 at HDAC6 was ≤ 0.01 µM; against HDAC2, ≤ 0.01 µM; on PI3Kδ, 0.01 to 0.1 µM.
In the case of `COc1ncc(-c2nc(N3CCOCC3)nc3c(OC4CCN(c5ncc(C(=O)NO)cc5F)CC4)cc(F)cc23)cc1NS(C)(=O)=O` [Compound 30], the half-inhibitory concentration (IC50) against HDAC6 was 0.01 to 0.1 µM; against HDAC2 it was 0.1 to 1 µM; at PI3Kδ, 0.01 to 0.1 µM.
On to `COc1ncc(-c2nc(N3CCOCC3)nc3c(OC4CCN(c5ncc(C(=O)NO)cn5)CC4)cc(F)cc23)cc1NS(C)(=O)=O` [Compound 39], for which the IC50 against HDAC6 was 0.1 to 1 µM; at HDAC2, 0.01 to 0.1 µM; on PI3Kδ it was ≤ 0.01 µM.
The like results for `COc1ncc(-c2nc(N3CCOCC3)nc3c(OC4CCN(c5ccc(C(=O)NO)cn5)CC4)cc(F)cc23)cc1NS(C)(=O)=O` [Compound 40] were, in that order, 0.01 to 0.1 µM, 0.1 to 1 µM and ≤ 0.01 µM.
